For the assay, the target named is T1, Glycogen synthase 1 (GYS1) (Homo sapiens, UniProt P13807).
T1 sequence (P13807 1-737): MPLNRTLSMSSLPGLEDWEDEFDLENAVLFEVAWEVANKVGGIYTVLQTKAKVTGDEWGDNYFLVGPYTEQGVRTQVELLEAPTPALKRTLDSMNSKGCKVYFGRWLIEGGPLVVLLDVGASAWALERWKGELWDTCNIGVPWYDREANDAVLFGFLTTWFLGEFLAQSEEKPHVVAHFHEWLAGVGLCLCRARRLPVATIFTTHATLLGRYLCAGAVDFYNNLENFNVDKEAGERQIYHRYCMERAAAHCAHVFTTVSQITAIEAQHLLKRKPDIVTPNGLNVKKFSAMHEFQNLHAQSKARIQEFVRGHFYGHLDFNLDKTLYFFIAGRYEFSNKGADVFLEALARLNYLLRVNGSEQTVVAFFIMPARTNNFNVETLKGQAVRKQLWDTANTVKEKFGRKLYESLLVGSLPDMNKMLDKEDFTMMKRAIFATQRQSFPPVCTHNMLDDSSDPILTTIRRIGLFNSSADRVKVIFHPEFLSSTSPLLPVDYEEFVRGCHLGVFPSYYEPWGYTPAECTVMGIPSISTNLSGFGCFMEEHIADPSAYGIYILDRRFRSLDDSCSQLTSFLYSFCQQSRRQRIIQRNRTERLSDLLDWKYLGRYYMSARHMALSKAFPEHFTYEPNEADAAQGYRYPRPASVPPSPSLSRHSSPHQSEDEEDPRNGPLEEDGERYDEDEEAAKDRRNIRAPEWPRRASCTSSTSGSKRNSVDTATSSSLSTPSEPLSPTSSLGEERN
T1 sequence (P46976 2-350 partner): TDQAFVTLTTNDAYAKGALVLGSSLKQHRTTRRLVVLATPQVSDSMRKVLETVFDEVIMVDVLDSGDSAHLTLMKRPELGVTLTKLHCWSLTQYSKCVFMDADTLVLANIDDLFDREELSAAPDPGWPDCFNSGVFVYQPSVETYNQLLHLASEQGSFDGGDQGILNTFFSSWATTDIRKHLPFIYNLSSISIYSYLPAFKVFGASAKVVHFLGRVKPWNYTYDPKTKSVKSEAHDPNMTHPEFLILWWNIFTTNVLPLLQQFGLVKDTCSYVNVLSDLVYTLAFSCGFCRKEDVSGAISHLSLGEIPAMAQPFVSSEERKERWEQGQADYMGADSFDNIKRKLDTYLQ
In words: PK/LDH coupled enzyme assay with recombinant GYS1 in the presence of G6P. The format is biochemical.

By IC50 is commonly meant the concentration that gives 50% inhibition.

For `CC(C)c1ccc([C@@H](NC(=O)[C@@H]2C[C@@H](F)CN2C(=O)Cc2cn[nH]n2)c2ccccc2)cc1` [MZ-101], the IC50 turned out to be 41 nM.

Values taken from article PMC10962247 (Science translational medicine, 2024).
